Assay results as given in ChEMBL document CHEMBL3352801, “Synthesis and lipid-lowering evaluation of 3-methyl-1H-purine-2,6-dione derivatives as potent and orally available anti-obesity agents” (Eur J Med Chem, 2014).
Calls of active or inactive are those of the source. The calls are words filed in the database; no cut-off is given here.

Columns and labels:
Mus musculus [1] = test: Increase in glucose tolerance in po dosed diet-induced obese C57Bl/6 mouse by oral glucose tolerance test; assay type: functional, organism-based
Mus musculus [2] = test: Antiobesity activity in diet-induced obese C57Bl/6 mouse assessed as reduction in fat accumulation in liver at 50 mg/kg/day, po for 4 weeks administered with high-fat diet by Oil Red O staining-based histological method; assay type: functional, organism-based
Mus musculus [3] = test: Increase in glucose tolerance in diet-induced obese C57Bl/6 mouse at 50 mg/kg/day, po for 4 weeks by oral glucose tolerance test; assay type: functional, organism-based
Mus musculus [4] = test: Decrease in insulin resistance in diet-induced obese C57Bl/6 mouse assessed as induction of insulin secretion at 20 mg/kg, po as single dose by insulin tolerance test; assay type: functional, organism-based; parameters: dose 20 mg/kg
Mus musculus [5] = test: Antiobesity activity in diet-induced obese C57Bl/6 mouse assessed as reduction in fat accumulation in liver at 20 to 50 mg/kg/day, po for 4 weeks administered with high-fat diet by Oil Red O staining-based histological method; assay type: functional, organism-based
Mus musculus [6] = test: Antiobesity activity in diet-induced obese C57Bl/6 mouse assessed as reduction in lipid droplets in liver at 50 mg/kg/day, po for 4 weeks administered with high-fat diet by Oil Red O staining-based histological method; assay type: functional, organism-based
Mus musculus [7] = test: Increase in glucose tolerance in diet-induced obese C57Bl/6 mouse at 20 mg/kg/day, po for 4 weeks by oral glucose tolerance test; assay type: functional, organism-based
Mus musculus [8] = test: Decrease in insulin resistance in diet-induced obese C57Bl/6 mouse assessed as induction of insulin secretion at 20 mg/kg/day, po for 4 weeks by insulin tolerance test; assay type: functional, organism-based
Mus musculus [9] = test: Antiobesity activity in diet-induced obese C57Bl/6 mouse assessed as normal liver morphology and histology at 50 mg/kg/day, po for 4 weeks administered with high-fat diet by Oil Red O staining-based histological method; assay type: functional, organism-based
Mus musculus [10] = test: Antiobesity activity in diet-induced obese C57Bl/6 mouse assessed as increase in HDL level compound dosed po for 4 weeks with high-fat diet; assay type: functional, organism-based
Mus musculus [11] = test: Antiobesity activity in diet-induced obese C57Bl/6 mouse assessed as reduction in triglyceride level compound dosed po for 4 weeks with high-fat diet; assay type: functional, organism-based
Mus musculus [12] = test: Antiobesity activity in diet-induced obese C57Bl/6 mouse assessed as reduction in HOMA-IR value compound dosed po for 4 weeks with high-fat diet; assay type: functional, organism-based
Mus musculus [13] = test: Antiobesity activity in diet-induced obese C57Bl/6 mouse assessed as reduction in size of fat cells at 20 mg/kg/day, po for 4 weeks administered with high-fat diet by Oil Red O staining-based histological method; assay type: functional, organism-based
Mus musculus [14] = test: Antiobesity activity in diet-induced obese C57Bl/6 mouse assessed as reduction in LDL level compound dosed po for 4 weeks with high-fat diet; assay type: functional, organism-based
Mus musculus [15] = test: Antiobesity activity in diet-induced obese C57Bl/6 mouse assessed as reduction in fasting blood glucose compound dosed po for 4 weeks with high-fat diet; assay type: functional, organism-based
Mus musculus [16] = test: Decrease in insulin resistance in diet-induced obese C57Bl/6 mouse assessed as induction of insulin secretion at 50 mg/kg/day, po for 4 weeks by insulin tolerance test; assay type: functional, organism-based
Mus musculus [17] = test: Antiobesity activity in diet-induced obese C57Bl/6 mouse assessed as reduction in FFA level compound dosed po for 4 weeks with high-fat diet; assay type: functional, organism-based
Mus musculus [18] = test: Antiobesity activity in diet-induced obese C57Bl/6 mouse assessed as alteration of adipose tissue morphology at 20 to 50 mg/kg/day, po for 4 weeks administered with high-fat diet by Oil Red O staining-based histological method; assay type: functional, organism-based
Mus musculus [19] = test: Antiobesity activity in diet-induced obese C57Bl/6 mouse assessed as change in insulin level compound dosed po for 4 weeks with high-fat diet; assay type: functional, organism-based
Mus musculus [20] = test: Decrease in insulin resistance in po dosed diet-induced obese C57Bl/6 mouse assessed as induction of insulin secretion by insulin tolerance test; assay type: functional, organism-based
Mus musculus [21] = test: Increase in glucose tolerance in diet-induced obese C57Bl/6 mouse at 20 mg/kg, po as single dose by oral glucose tolerance test; assay type: functional, organism-based; parameters: dose 20 mg/kg
Mus musculus [22] = test: Antiobesity activity in diet-induced obese C57Bl/6 mouse assessed as loss of epididymal fat mass at 50 mg/kg/day, po for 4 weeks administered with high-fat diet; assay type: functional
Mus musculus [23] = test: Antiobesity activity in diet-induced obese C57Bl/6 mouse assessed as change in insulin level at 50 mg/kg/day, po for 4 weeks administered with high-fat diet (reference value: 11.85 +/- 2.6 mU); assay type: functional
Rattus norvegicus [24] = test: Acute toxicity in Sprague-Dawley rat assessed as clinical signs at 2.5 g/kg, po as single dose measured after 7 days; assay type: organism-based; details: in vivo, 2500 mg/kg, 168 h
Mus musculus [25] = test: Toxicity in diet-induced obese C57Bl/6 mouse assessed as change in AST level at 50 mg/kg/day, po for 4 weeks administered with high-fat diet (reference value: 125.00 +/- 35.00 U/L); assay type: organism-based; parameters: route oral; details: in vivo, 672 h
Mus musculus [26] = test: Toxicity in diet-induced obese C57Bl/6 mouse assessed as change in ALT level at 50 mg/kg/day, po for 4 weeks administered with high-fat diet (reference value: 33.00 +/- 18.23 U/L); assay type: organism-based; parameters: route oral; details: in vivo, 672 h
Mus musculus [27] = test: Antiobesity activity in diet-induced obese C57Bl/6 mouse assessed as loss of liver weight at 50 mg/kg/day, po for 4 weeks administered with high-fat diet; assay type: functional
Mus musculus [28] = test: Antiobesity activity in diet-induced obese C57Bl/6 mouse assessed as reduction in HOMA-IR value at 50 mg/kg/day, po for 4 weeks administered with high-fat diet (reference value: 3.06 +/- 0.85 no_unit); assay type: functional
Mus musculus [29] = test: Antiobesity activity in diet-induced obese C57Bl/6 mouse assessed as reduction in body weight at 50 mg/kg/day, po for 4 weeks administered with high-fat diet; assay type: functional; parameters: scale not given: the % may be the effect or the level left
Mus musculus [30] = test: Antiobesity activity in diet-induced obese C57Bl/6 mouse assessed as reduction in FFA level at 50 mg/kg/day, po for 4 weeks administered with high-fat diet (reference value: 19.55 +/- 1.57 ng/L); assay type: functional
Rattus norvegicus [31] = test: Acute toxicity in Sprague-Dawley rat assessed as mortality at 2.5 g/kg, po as single dose measured after 7 days; assay type: organism-based; details: in vivo, 2500 mg/kg, 168 h
Mus musculus [32] = test: Antiobesity activity in diet-induced obese C57Bl/6 mouse assessed as reduction in hepatic triglyceride level at 50 mg/kg/day, po for 4 weeks administered with high-fat diet by Oil Red O staining-based histological method; assay type: functional; parameters: scale not given: the % may be the effect or the level left
Mus musculus [33] = test: Antiobesity activity in diet-induced obese C57Bl/6 mouse assessed as reduction in LDL level at 50 mg/kg/day, po for 4 weeks administered with high-fat diet (reference value: 0.14 +/- 0.07 mM); assay type: functional
Mus musculus [34] = test: Antiobesity activity in diet-induced obese C57Bl/6 mouse assessed as increase in HDL level at 50 mg/kg/day, po for 4 weeks administered with high-fat diet (reference value: 0.60 +/- 0.17 mM); assay type: functional
Rattus norvegicus [35] = test: Acute toxicity in Sprague-Dawley rat assessed as change in body weight at 2.5 g/kg, po as single dose measured after 7 days; assay type: organism-based; details: in vivo, 2500 mg/kg, 168 h
Mus musculus [36] = test: Antiobesity activity in diet-induced obese C57Bl/6 mouse assessed as reduction in fasting blood glucose at 50 mg/kg/day, po for 4 weeks administered with high-fat diet (reference value: 5.0 +/- 1.30 mM); assay type: functional
Mus musculus [37] = test: Toxicity in diet-induced obese C57Bl/6 mouse assessed as change in food intake at 50 mg/kg/day, po for 4 weeks administered with high-fat diet; assay type: organism-based; parameters: route oral; details: in vivo, 672 h
3T3-L1 = test: Inhibition of triglyceride accumulation in mouse 3T3L1 cells at 10 uM after 24 hrs; assay type: functional; details: 3T3-L1, 24 h
Mus musculus [38] = test: Antiobesity activity in diet-induced obese C57Bl/6 mouse assessed as reduction in triglyceride level at 50 mg/kg/day, po for 4 weeks administered with high-fat diet (reference value: 0.93 +/- 0.09 mM); assay type: functional

CCn1c(-c2ccc(OCCN(C)c3ccccn3)cc2)nc2c1c(=O)n(Cc1ccccc1C#N)c(=O)n2C
Activity (Mus musculus [1]): Dose-dependent effect
Activity (Mus musculus [2]): Active
Activity (Mus musculus [3]): Active
Activity (Mus musculus [4]): Active
Activity (Mus musculus [5]): Active
Activity (Mus musculus [6]): Active
Activity (Mus musculus [7]): Active
Activity (Mus musculus [8]): Active
Activity (Mus musculus [9]): Active
Activity (Mus musculus [10]): Dose-dependent effect
Activity (Mus musculus [11]): Dose-dependent effect
Activity (Mus musculus [12]): Dose-dependent effect
Activity (Mus musculus [13]): Active
Activity (Mus musculus [14]): Dose-dependent effect
Activity (Mus musculus [15]): Dose-dependent effect
Activity (Mus musculus [16]): Active
Activity (Mus musculus [17]): Dose-dependent effect
Activity (Mus musculus [18]): Active
Activity (Mus musculus [19]): Dose-dependent effect
Activity (Mus musculus [20]): Dose-dependent effect
Activity (Mus musculus [21]): Active

CCCn1c(-c2ccc(OCCN(C)c3ccccn3)cc2)nc2c1c(=O)n(Cc1ccccc1C#N)c(=O)n2C
Activity (Mus musculus [22]): 4.76%
Activity (Mus musculus [2]): Active
Activity (Mus musculus [23]): 12.04 mU
Activity (Rattus norvegicus [24]): Non-toxic
Activity (Mus musculus [25]): 150 U/L
Activity (Mus musculus [3]): inactive
Activity (Mus musculus [26]): 86 U/L
Activity (Mus musculus [27]): 12.8%
Activity (Mus musculus [28]): 3.99
Activity (Mus musculus [6]): inactive
Activity (Mus musculus [29]): 7.64%
Activity (Mus musculus [30]): 24.43 ng/L
Activity (Rattus norvegicus [31]): Non-toxic
Activity (Mus musculus [32]): 5.15%
Activity (Mus musculus [33]): 0.16 mM
Activity (Mus musculus [16]): inactive
Activity (Mus musculus [34]): 0.96 mM
Activity (Rattus norvegicus [35]): Non-toxic
Activity (Mus musculus [36]): 7.25 mM
Activity (Mus musculus [37]): Non-toxic
inhibition at 10 µM (3T3-L1): 51.1%
Activity (Mus musculus [38]): 1.15 mM
